# Data: patent US12509445B2, “Herbicidally active 4-cyclopropyl-6-[4-(trifluormethyl)pyrazol-1-yl)]pyrimidines” (Bayer Aktiengesellschaft, priority 2019, dated 2025)
# What was measured:
# Format in all cases: in vivo
# [1] = test system: Lolium multiflorum (LOLMU); experiment: Pre-emergence herbicidal action; conditions: 320 g/ha, visual scoring after about 3 weeks vs untreated controls, 100% = plants have died
# Text: (§1) The abbreviations used here have the following meanings: • ABUTH Abutilon theophrasti • AMARE Amaranlhus retroflexus • CYPES Cyperus serotinus • ECHCGEchinocloa crus galli • LOLRI Lolium rigidum Gaudin • PHBPU Pharbitis purpurcum • SETVI Setaria viridis • VERPE Veronica persica • ALOMY Alopccurus myosuroides • AVEFA Avena fatua • DIGSA Digitaria sanguinalis • LOLMU Lolium multiflorum • MATIN Matricaria inodora • POLCO Polygonum convolvulus • STEME Stellaria media • VIOTR Viola tricolor
# (§2) Seeds of monocotyledonous and dicotyledonous weed plants and crop plants are placed in plastic or organic plant pots and covered with soil. The compounds of the invention, formulated in the form of wettable powders (WP) or as emulsion concentrates (EC), are then applied onto the surface of the covering soil as aqueous suspension or emulsion with addition of 0.5% additive at a water application rate of 600 l/ha (converted). After the treatment, the pots are placed in a greenhouse and kept under good growth conditions for the trial plants. After about 3 weeks, the effect of the preparations is scored visually in comparison with untreated controls as percentages. For example, 100% activity=the plants have died, 0% activity=like control plants.
# [2] = test system: Pharbitis purpurea (PHBPU); experiment: Pre-emergence herbicidal action; conditions: 320 g/ha, visual scoring after about 3 weeks vs untreated controls, 100% = plants have died
# Text: as §1, §2
# [3] = test system: Cyperus serotinus (CYPES); experiment: Pre-emergence herbicidal action; conditions: 320 g/ha, visual scoring after about 3 weeks vs untreated controls, 100% = plants have died
# Text: as §1, §2
# Veronica persica (VERPE) [4] = experiment: Pre-emergence herbicidal action; conditions: 320 g/ha, visual scoring after about 3 weeks vs untreated controls, 100% = plants have died
# Text: as §1, §2
# [5] = test system: Abutilon theophrasti (ABUTH); experiment: Pre-emergence herbicidal action; conditions: 320 g/ha, visual scoring after about 3 weeks vs untreated controls, 100% = plants have died
# Text: as §1, §2
# [6] = test system: Amaranthus retroflexus (AMARE); experiment: Pre-emergence herbicidal action; conditions: 320 g/ha, visual scoring after about 3 weeks vs untreated controls, 100% = plants have died
# Text: as §1, §2
# Avena fatua (AVEFA) [7] = experiment: Pre-emergence herbicidal action; conditions: 320 g/ha, visual scoring after about 3 weeks vs untreated controls, 100% = plants have died
# Text: as §1, §2
# Viola tricolor (VIOTR) [8] = experiment: Post-emergence herbicidal action; conditions: 320 g/ha, visual rating after about 3 weeks vs untreated controls, 100% = plants have died
# Description: (§3) Seeds of monocotyledonous and dicotyledonous weeds and crop plants are placed in sandy loam in plastic or organic plant pots, covered with soil and cultivated in a greenhouse under controlled growth conditions. 2 to 3 weeks after sowing, the test plants are treated at the one-leaf stage. The compounds of the invention, formulated in the form of wettable powders (WP) or as emulsion concentrates (EC), are then sprayed onto the green parts of the plants as aqueous suspension or emulsion with addition of 0.5% additive at a water application rate of 600 l/ha (converted). After the test plants have been kept in the greenhouse under optimum growth conditions for about 3 weeks, the activity of the preparations is rated visually in comparison to untreated controls. For example, 100% activity=the plants have died, 0% activity=like control plants.
# as §1
# [9] = test system: Pharbitis purpurea (PHBPU); experiment: Post-emergence herbicidal action; conditions: 320 g/ha, visual rating after about 3 weeks vs untreated controls, 100% = plants have died
# Description: as §3, §1
# Veronica persica (VERPE) [10] = experiment: Post-emergence herbicidal action; conditions: 320 g/ha, visual rating after about 3 weeks vs untreated controls, 100% = plants have died
# Description: as §3, §1
# [11] = test system: Amaranthus retroflexus (AMARE); experiment: Post-emergence herbicidal action; conditions: 320 g/ha, visual rating after about 3 weeks vs untreated controls, 100% = plants have died
# Description: as §3, §1
# [12] = test system: harmful plants such as Alopecurus myosuroides, Amaranthus retroflexus, Avena fatua, Echinochloa crus-galli, Matricaria inodora, Pharbitis purpurea, Polygonum …; experiment: Pre-emergence herbicidal action, summary in text; conditions: pre-emergence treatment
# Text: as §2
# At the same time, some compounds according to the invention leave graminaceous crops such as barley, wheat, rye, millet/sorghum, maize, rice or sugarcane virtually undamaged when applied by the pre-emergence method, even at high active compound dosages. Some compounds are additionally also benign to dicotyledonous crops such as soya, cotton, oilseed rape or sugarbeet.
# [13] = test system: harmful plants such as Abutilon theophrasti, Alopecurus myosuroides, Amaranthus retroflexus, Avena fatua, Echinochloa crus-galli, Matricaria inodora, Pharbitis …; experiment: Post-emergence herbicidal action, summary in text; conditions: post-emergence treatment
# Description: as §3
# In this case, for example, in the post-emergence process, the compounds No. 1-001 and 111-001 have very good herbicidal activity (80% to 100% herbicidal action) against harmful plants such as Abutilon theophrasti, Alopecurus myosuroides, Amaranthus retroflexus, Avena fatua, Echinochloa crus-galli, Matricaria inodora, Pharbitis purpurea, Setaria viridis, Stellaria media, Veronica persica and Viola tricolor at an application rate of 0.32 kg of active substance or less per hectare. At the same time, some compounds according to the invention leave graminaceous crops such as barley, wheat, rye, millet/sorghum, maize, rice or sugarcane virtually undamaged when applied by the post-emergence method, even at high active compound dosages. Some substances are additionally also benign to dicotyledonous crops such as soya, cotton, oilseed rape or sugarbeet.
# [14] = test system: Lolium multiflorum (LOLMU); experiment: Post-emergence herbicidal action
# Description: as §3, §1
# (§4) The compounds according to the invention were tested by the post-emergence and pre-emergence methods under the conditions described above for comparative purposes with the structurally closest compounds known from WO 2005/089551 A1 (D1).
# [15] = test system: Alopecurus myosuroides (ALOMY); experiment: Post-emergence herbicidal action
# Description: as §3, §1, §4
# [16] = test system: Echinochloa crus-galli (ECHCG); experiment: Post-emergence herbicidal action
# Description: as §3, §1, §4
# Stellaria media (STEME) [17] = experiment: Post-emergence herbicidal action
# Description: as §3, §1, §4
# [18] = test system: Abutilon theophrasti (ABUTH); experiment: Post-emergence herbicidal action
# Description: as §3, §1, §4
# Setaria viridis (SETVI) [19] = experiment: Post-emergence herbicidal action
# Description: as §3, §1, §4
# [20] = test system: Matricaria inodora (MATIN); experiment: Post-emergence herbicidal action
# Description: as §3, §1, §4
# Avena fatua (AVEFA) [21] = experiment: Post-emergence herbicidal action
# Description: as §3, §1, §4
# [22] = test system: Polygonum convolvulus (POLCO); experiment: Post-emergence herbicidal action; conditions: 80 g of a.i./ha, comparative test
# Description: as §3, §1, §4
# Viola tricolor (VIOTR) [23] = experiment: Pre-emergence herbicidal action
# Text: as §1, §2, §4
# [24] = test system: Alopecurus myosuroides (ALOMY); experiment: Pre-emergence herbicidal action
# Text: as §1, §2, §4
# [25] = test system: Echinochloa crus-galli (ECHCG); experiment: Pre-emergence herbicidal action
# Text: as §1, §2, §4
# Stellaria media (STEME) [26] = experiment: Pre-emergence herbicidal action
# Text: as §1, §2, §4
# Setaria viridis (SETVI) [27] = experiment: Pre-emergence herbicidal action
# Text: as §1, §2, §4
# [28] = test system: Matricaria inodora (MATIN); experiment: Pre-emergence herbicidal action
# Text: as §1, §2, §4
# [29] = test system: Polygonum convolvulus (POLCO); experiment: Pre-emergence herbicidal action
# Text: as §1, §2, §4
# [30] = 80 g of a.i./ha, comparative test
# [31] = 320 g/ha, visual rating after about 3 weeks vs untreated controls, 100% = plants have died
# [32] = 320 g/ha, visual scoring after about 3 weeks vs untreated controls, 100% = plants have died
smiles,measurement,setting,value
"FC(F)(F)c1cnn(-c2cc(C3CC3)nc(Oc3ccnc(C(F)(F)F)c3)n2)c1 [Example I-001, 4-cyclopropyl-6-[4-(trifluoromethyl)-1H-pyrazol-1-yl]-2-{[2-(trifluoromethyl)pyridin-4-yl]oxy}pyrimidine]",Pre-emergence action LOLMU,[1],100%
same,Pre-emergence action PHBPU,[2],100%
same,Pre-emergence action CYPES,[3],80%
same,Pre-emergence action VERPE,Veronica persica (VERPE) [4],100%
same,Pre-emergence action ABUTH,[5],90%
same,Pre-emergence action AMARE,[6],90%
same,Pre-emergence action AVEFA,Avena fatua (AVEFA) [7],100%
same,Post-emergence action VIOTR,Viola tricolor (VIOTR) [8],100%
same,Post-emergence action PHBPU,[9],90%
same,Post-emergence action VERPE,Veronica persica (VERPE) [10],100%
same,Post-emergence action AMARE,[11],90%
same,herbicidal action against harmful plants (in words),[12],good herbicidal action
same,herbicidal action against harmful plants (in words),[13],good herbicidal action
same,Herbicidal action against LOLMU,[14]; [30],90%
same,Post-emergence action LOLMU,[14]; [31],100%
same,Herbicidal action against ALOMY,[15]; [30],80%
same,Post-emergence action ALOMY,[15]; [31],90%
same,Herbicidal action against ECHCG,[16]; [30],90%
same,Post-emergence action ECHCG,[16]; [31],90%
same,Herbicidal action against STEME,Stellaria media (STEME) [17]; [30],90%
same,Post-emergence action STEME,Stellaria media (STEME) [17]; [31],100%
same,Herbicidal action against ABUTH,[18]; [30],90%
same,Post-emergence action ABUTH,[18]; [31],100%
same,Herbicidal action against SETVI,Setaria viridis (SETVI) [19]; [30],90%
same,Post-emergence action SETVI,Setaria viridis (SETVI) [19]; [31],100%
same,Herbicidal action against MATIN,[20]; [30],90%
same,Post-emergence action MATIN,[20]; [31],90%
same,Herbicidal action against AVEFA,Avena fatua (AVEFA) [21]; [30],80%
same,Post-emergence action AVEFA,Avena fatua (AVEFA) [21]; [31],90%
same,Herbicidal action against POLCO,[22],100%
same,Herbicidal action against VIOTR,Viola tricolor (VIOTR) [23]; [30],100%
same,Pre-emergence action VIOTR,Viola tricolor (VIOTR) [23]; [32],100%
same,Herbicidal action against ALOMY,[24]; [30],100%
same,Pre-emergence action ALOMY,[24]; [32],100%
same,Herbicidal action against ECHCG,[25]; [30],100%
same,Pre-emergence action ECHCG,[25]; [32],100%
same,Herbicidal action against STEME,Stellaria media (STEME) [26]; [30],100%
same,Pre-emergence action STEME,Stellaria media (STEME) [26]; [32],100%
same,Herbicidal action against SETVI,Setaria viridis (SETVI) [27]; [30],100%
same,Pre-emergence action SETVI,Setaria viridis (SETVI) [27]; [32],100%
same,Herbicidal action against MATIN,[28]; [30],100%
same,Pre-emergence action MATIN,[28]; [32],100%
same,Herbicidal action against POLCO,[29]; [30],100%
same,Pre-emergence action POLCO,[29]; [32],100%
